Where “and” joins values, the source holds several entries; their conditions need not be identical. Equal entries are not always repeated. Calls of active or inactive are those of the source.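 How the source made its calls: active means EC50 of 10 µM or lower; inactive means the rest.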
System: H9c2 cardiomyocytes, 2-deoxyglucose injury, ATP luminescence, 2 h
Test: protection of cardiomyocytes from 2-deoxyglucose injury, SAR follow-up, H9c2 cells, ATP luminescence, set 2 (AID 624454)

Row | Structure (SMILES) | EC50 (protection from 2-deoxyglucose ATP loss, increase)
1 | CCN(CC(=O)Nc1ccccc1)C(=O)c1cc(-c2cccs2)nn1-c1ccccc1 | > 79 µM (inactive)
2 | COc1cccc(CNC(=O)c2cc(-c3cc(OC)c(OC)c(OC)c3)nc3ccccc23)c1 | 27.4 µM (inactive)
3 | COc1ccc(NC(=O)c2cc(-c3cc(OC)c(OC)c(OC)c3)nc3ccccc23)cc1 | > 79 µM (inactive)
4 | COc1ccc2c(c1OC)C(=O)N1c3ccccc3C(=O)N(c3cccc(C(F)(F)F)c3)C21 (configuration not stated) | > 79 µM (inactive)
5 | COc1cc(-c2cc(C(=O)Nc3ccc(C(C)=O)cc3)c3ccccc3n2)cc(OC)c1OC | > 79 µM (inactive)
6 | COc1cc(-c2cc(C(=O)Nc3cccc(C(C)=O)c3)c3cc(Cl)ccc3n2)cc(OC)c1OC | > 79 µM (inactive)
7 | COc1cc(-c2cc(C(=O)Nc3ccccc3)c3ccccc3n2)cc(OC)c1OC | > 79 µM (inactive)
8 | COc1ccc2c(c1OC)C(=O)N1c3ccccc3C(=O)N(c3cccc(F)c3)C21 (configuration not stated) | 41.1 µM (inactive)
9 | COc1ccc(-c2cc(C(=O)Nc3cccc(C(C)=O)c3)c3ccccc3n2)cc1OC | 42.8 µM (inactive)
10 | COc1ccc2c(c1OC)C(=O)N1c3ccccc3C(=O)N(c3ccc(Br)cc3)C21 (configuration not stated) | 11.3 µM (inactive)
11 | O=C1c2ccccc2N2C(=O)c3ccccc3C2N1c1ccccc1 (configuration not stated) | > 79 µM (inactive)
12 | COc1ccc2c(c1OC)C(=O)N1c3ccccc3C(=O)N(c3ccc(C)cc3)C21 (configuration not stated) | 29.1 µM (inactive)
13 | COc1cccc(NC(=O)c2cc(-c3cc(OC)c(OC)c(OC)c3)nc3ccccc23)c1 | > 79 µM (inactive)
14 | COc1cc(-c2cc(C(=O)Nc3cccc(F)c3)c3ccccc3n2)cc(OC)c1OC | > 79 µM (inactive)
15 | COc1cc(-c2cc(C(=O)Nc3cccc(C(C)=O)c3)c3ccccc3n2)cc(OC)c1OC | 13.7 µM (inactive) and 14.8 µM (inactive)
16 | COc1ccc(N2C(=O)c3ccccc3N3C(=O)c4c(ccc(OC)c4OC)C23)cc1 (configuration not stated) | 58.4 µM (inactive)
17 | CCN(CC(=O)Nc1ccc(OC)cc1)C(=O)c1cc(-c2cc(OC)c(OC)c(OC)c2)nc2ccccc12 | 29.8 µM (inactive)
18 | COc1ccc2c(c1OC)C(=O)N1c3ccccc3C(=O)N(c3cccc(Cl)c3)C21 (configuration not stated) | 45 µM (inactive)
19 | CC(=O)c1cccc(NC(=O)c2cc(-c3ccccc3)nc3ccccc23)c1 | 33.5 µM (inactive)

Row | Structure (SMILES) | EC50 (protection from 2-deoxyglucose ATP loss, increase)
20 | COc1ccc(-c2cc(C(=O)Nc3cccc(C(C)=O)c3)c3ccccc3n2)cc1 | > 79 µM (inactive)
21 | COc1ccc2c(c1OC)C(=O)N1c3ccccc3C(=O)N(c3cccc(Br)c3)C21 (configuration not stated) | 28.4 µM (inactive) and > 79 µM (inactive)
22 | COc1cc(-c2cc(C(=O)Nc3cccc(C)c3)c3ccccc3n2)cc(OC)c1OC | > 79 µM (inactive)
23 | COc1ccc2c(c1OC)C(=O)N1c3ccccc3C(=O)N(c3ccc(C(C)(C)C)cc3)C21 (configuration not stated) | > 79 µM (inactive)
24 | O=C1c2ccccc2N2C(=O)c3ccccc3C2N1c1cccc(Br)c1 (configuration not stated) | > 79 µM (inactive)
25 | CCN(CC(=O)Nc1ccc(F)cc1)C(=O)c1cc(-c2cccs2)nn1-c1ccccc1 | 36.1 µM (inactive)
26 | COc1cccc(N2C(=O)c3ccccc3N3C(=O)c4ccccc4C23)c1 (configuration not stated) | > 79 µM (inactive)
27 | CCOC(=O)c1cccc(NC(=O)c2cc(-c3cc(OC)c(OC)c(OC)c3)nc3ccccc23)c1 | > 79 µM (inactive)
28 | CCN(CC(=O)Nc1ccc(OC)cc1)C(=O)c1cc(-c2cccs2)nn1-c1ccccc1 | 16.1 µM (inactive) and 20.5 µM (inactive)
29 | COc1cccc(CNC(=O)c2cc(-c3ccc(OC)c(OC)c3)nc3ccccc23)c1 | 18.5 µM (inactive)
30 | COc1ccc2c(c1OC)C(=O)N1c3ccccc3C(=O)N(Cc3ccccc3Cl)C21 (configuration not stated) | 12.8 µM (inactive)
31 | COc1cc(-c2cc(C(=O)Nc3cccc(C(F)(F)F)c3)c3ccccc3n2)cc(OC)c1OC | > 79 µM (inactive)
32 | COc1ccc2c(c1OC)C(=O)N1c3ccccc3C(=O)N(c3cccc(C)c3)C21 (configuration not stated) | 53.3 µM (inactive)
33 | COc1cccc(-c2cc(C(=O)Nc3cccc(C(C)=O)c3)c3ccccc3n2)c1 | 37.3 µM (inactive)
34 | COc1cc(-c2cc(C(=O)Nc3cccc(Cl)c3)c3ccccc3n2)cc(OC)c1OC | > 79 µM (inactive)
35 | COc1ccc2c(c1OC)C(=O)N1c3ccccc3C(=O)N(c3ccccc3)C21 (configuration not stated) | 31.9 µM (inactive)
36 | COc1ccc2c(c1OC)C(=O)N1c3ccccc3C(=O)N(Cc3cccc(Cl)c3)C21 (configuration not stated) | 37.9 µM (inactive)
37 | COc1cccc(N2C(=O)c3ccccc3N3C(=O)c4c(ccc(OC)c4OC)C23)c1 (configuration not stated) | 78 µM (inactive)

From PubChem BioAssay AID624454 (Sanford-Burnham Center for Chemical Genomics, 2012)
